Test results: paper PMC7371863, “Intracellular interplay between cholecystokinin and leptin signalling for satiety control in rats” (Scientific Reports, 2020)

What was measured:
[1] = system: primary cultures of rat nodose ganglion neurons; settings: CCK-8s treatment, co-stimulation with leptin; cited from earlier work
Text: An important observation in C6 models, other than intracellular Ca^2+ signalling, is the reduction in leptin-induced nuclear pSTAT3 accumulation by co-stimulation with CCK-8s. The level of pSTAT3 following co-stimulation with CCK-8s and leptin has been analyzed in primary cultures of rat nodose ganglion neurons[53],[54].

[2] = system: CCK-1 and CCK-2 receptors (C6 cells); test: Ca2+ imaging (Fura-2), CCK-8s response in C6 cells; format: cell-based, rat; settings: CCK-8s 10 nM; n = 103/five dishes; Fura-2, 34°C, BSS pH 7.4
Procedure: (§1) Rat C6 glioma cells were cultured in Dulbecco’s Modified Eagle Medium/F12 (DMEM/F12) supplemented with 10% FBS, sodium bicarbonate (1.2 g/L), and 1% penicillin/streptomycin antibiotics at 37 °C in 5% CO2. The full-length mouse leptin receptor (ObRb) in pcDNA3.1 vector was kindly provided by Dr. Christian Bjørbaek (BIDMC, Harvard Medical School, Boston, MA, USA) and transfected using Lipofectamine 2000. Subsequently, the cells were cultured in medium containing 500 μg/mL G418 for cell selection.
(§2) C6 cells plated on 35 mm plastic dishes were gently rinsed with buffered salt solution (BSS) consisting of 130 mM NaCl, 5.4 mM KCl, 2 mM CaCl2, 1 mM MgCl2, 5.5 mM D-glucose, and 10 mM HEPES/NaOH (pH 7.4), and incubated in BSS supplemented with 6 µM Fura-2 AM (Dojindo Laboratories, Kumamoto, Japan) for 30 min in a CO2 incubator. Prior to photometry, the cells were rinsed again with BSS, incubated at 37°C for 15 min, and then continuously perfused with BSS at 34°C at a flow rate of 3 mL/min. Fluorescence images were obtained using an upright microscope (Axioplan2; Carl Zeiss, Thornwood, NY, USA) with a water-immersion objective (Achroplan×20 NA0.5w; Carl Zeiss). The wavelength of the excitation UV light (340 nm or 380 nm pulse; 250 msec) was switched using a filter wheel (Lambda 10-2; Sutter Instruments, Novato, CA, USA). […] The background fluorescence was also subtracted using the software. […]

[3] = system: meal frequency / meal size; settings: leptin; cited from earlier work
Text: Although CCK and leptin have been commonly described as satiety controlling peptides, their differential roles have also been highlighted. […] Among the wide variety of intracellular signalling machineries linked to ObRb, it is still uncertain which pathway(s) is/are linked to what type of satiety controls. pSTAT3-ir is used as a genera ...

[4] = system: C6-ObRb cells (mouse leptin receptor ObRb); test: Ca2+ imaging (Fura-2) in C6 cells overexpressing mouse ObRb (C6-ObRb); format: cell-based, rat C6 cells
Procedure: as §1, §2

[5] = system: megakaryoblast cells; settings: co-stimulation with leptin; cited from earlier work
Text: It was previously shown that ADP-induced Ca^2+ mobilization, presumably via Gq-coupled P2Y receptor, was enhanced by co-stimulation with leptin in megakaryoblast cells. Since leptin could phosphorylate the tyrosine residue of Gqα protein by JAK2 (i.e., in AG490-dependent manner) in these cells, leptin could facilitate CCK receptor signalling similarly in C6 cells. […] Thus, further downstream signalling might also involve the activation of p ...

[6] = system: cerebellar granule cell cultures; settings: via MAPK pathways; cited from earlier work
Text: (§3) A product of the obese gene, leptin, is a peptide hormone secreted from white adipocyte tissue, also known as a satiety-controller[31]–[33]. […] Splice variants (ObRa–ObRe) have been identified for leptin receptors and only the full-length isoform (ObRb) contains the intracellular motifs required for the initiation of intracellular signalling. ObRb is a single-transmembrane receptor that interacts with diverse signalling molecules[ ...

[7] = system: hypothalamic astrocyte cultures; settings: cited from earlier work
Text: as §3

[8] = system: primary cultures of ventromedial hypothalamus (VMN and ARC neurons); settings: depending on cell populations; cited from earlier work
Text: as §3

[9] = system: dissociated ARC neurons; settings: cited from earlier work
Text: as §3

[10] = system: cultured vagal afferent neurons; settings: cited from earlier work
[11] = system: wild-type C6 cells; test: Ca2+ imaging (Fura-2), leptin and CCK-8s signalling interaction in wild-type C6 cells; format: cell-based, rat; settings: leptin 100 nM
Procedure: as §1
C6 cells plated on 35 mm plastic dishes were gently rinsed with buffered salt solution (BSS) consisting of 130 mM NaCl, 5.4 mM KCl, 2 mM CaCl2, 1 mM MgCl2, 5.5 mM D-glucose, and 10 mM HEPES/NaOH (pH 7.4), and incubated in BSS supplemented with 6 µM Fura-2 AM (Dojindo Laboratories, Kumamoto, Japan) for 30 min in a CO2 incubator. Prior to photometry, the cells were rinsed again with BSS, incubated at 37°C for 15 min, and then continuously perfused with BSS at 34°C at a flow rate of 3 mL/min. Fluorescence images were obtained using an upright microscope (Axioplan2; Carl Zeiss, Thornwood, NY, USA) with a water-immersion objective (Achroplan×20 NA0.5w; Carl Zeiss). The wavelength of the excitation UV light (340 nm or 380 nm pulse; 250 msec) was switched using a filter wheel (Lambda 10-2; Sutter Instruments, Novato, CA, USA). The UV light was generated by a full spectrum 300W Xenon bulb (Lambda LS; Sutter Instruments), conducted to the microscope through a liquid light guide. The pair of fluorescent images was processed using a band-pass filter (485–515 nm) and exposed to a multiple format cooled CCD camera (CoolSnap-fx; Photometrics, Tucson, AZ, USA) at 6-sec intervals. The filter wheel and the CCD camera were controlled using digital imaging software (MetaFluor ver. 6.2; Japan Molecular Devices, Tokyo, Japan). The background fluorescence was also subtracted using the software.
During image acquisition, leptin (PeproTech, Rocky Hill, NJ, USA), CCK-4 (Peptide Institute, Inc., Osaka, Japan), CCK-8s (Sigma-Aldrich, St. Louis, MO, USA), AG490 (Calbiochem, San Diego, CA), LY294002 (Calbiochem), LY225910 (R&D Systems, Minneapolis, MN, USA), LGM (LKT Laboratories Inc., St. Paul, MN, USA), and ATP (Sigma-Aldrich) were applied by switching the perfusate. The magnitude of Ca^2+ responses was determined by peak area analysis using Origin 5.0 software (OriginLab, Northampton, MA, USA).

[12] = system: oxytocin neurons in the hypothalamic paraventricular nucleus; settings: leptin administration; cited from earlier work
Text: (§4) Also, the effect of CCK on satiety control is attenuated in Zucker fa/fa rats lacking functional leptin receptors. In addition, other evidence implicated that leptin-mediated satiety-controlling systems may strongly interact with CCK systems[18],[50]–[54]. For example, c-Fos expression in oxytocin neurons in the hypothalamic paraventricular nucleus is elevated by leptin administration, and these neurons have axons tha ...

[13] = system: nucleus tractus solitarius; settings: fourth ventricular injection of leptin; cited from earlier work
Text: as §4

[14] = system: porcine adrenal medullary chromaffin cells; settings: cited from earlier work
[15] = system: ARC cells; format: cell-based, rat; settings: leptin 500 nM; 12 slices; 0.5 µM tetrodotoxin; 34 °C; mean with standard error

## CCK-8s [reference compound]
[1]
  total pSTAT3: significant increase in pSTAT3
[2]
  C6 cells displaying Ca2+ transients on re-stimulation: 32%

## leptin: peptide hormone secreted from white adipocyte tissue, product of the obese gene; PeproTech Cat#450-31
[3]
  meal size and meal frequency: reduces meal size but does not alter meal frequency
[4]; leptin 100 nM and CCK-8s 10 nM, n = 84/four dishes, Student's t-test
  magnitude of Ca2+ response by co-stimulation, C6-ObRb versus wild-type: not significantly different from that in wild-type C6 cells
[4]; leptin 100 nM, 5 min or 500 nM, 5 min, n = 190/11 dishes
  Ca2+ transients by leptin treatment alone, C6-ObRb: failed to evoke Ca^2+ transients
[5]
  ADP-induced Ca2+ mobilization: enhanced
[6]
  action on N-methyl-D-aspartate-induced Ca2+ influx: excitatory actions
[7]
  cytosolic Ca2+ after leptin stimulation: monophasic cytosolic Ca^2+ elevation
[8]
  intrinsic Ca2+ oscillations: increased or decreased intrinsic Ca^2+ oscillations
[9]
  ghrelin-induced Ca2+ elevation: inhibited
[10]
  cytosolic Ca2+ after leptin stimulation: cytosolic Ca^2+ increase
[11]; 5 min or 500 nM, 5 min, n = 185/eight dishes
  Ca2+ transients by leptin treatment alone, wild-type C6 cells: failed to evoke Ca^2+ transients
[11]; 5 min pre-treatment, CCK-8s 10 nM, n = 115/five dishes
  amplification in the magnitude of CCK-8s-induced Ca2+ mobilization: ~ 5 times
[12]
  c-Fos expression in oxytocin neurons: elevated
[13]
  CCK-induced satiety response: enhanced the CCK-induced satiety response
  c-Fos expression in the nucleus tractus solitarius: failed to increase c-Fos expression
[14]
  cytosolic Ca2+ after leptin stimulation: cytosolic Ca^2+ increase
[15]
  cells with monophasic Ca2+ increase, ARC: 25.9% ± 4.5
